Test results published in patent US8008285B2, “Droxidopa and pharmaceutical composition thereof for the treatment of fibromyalgia” (Chelsea Therapeutics, Inc., priority 2007, dated 2011).
Several values for one entry are separate records, joined by “and”; a condition that tells them apart may be missing. Equal values may be shown once.

Key:
[1] = test system: Chronic Constriction Injury (CCI) model; experiment: Chronic Constriction Injury (CCI) model, mechanical allodynia (electronic Von Frey); format: in vivo, rat; details: 60 minutes post dosing; for levels of allodynia compared with vehicle treated animals: ANOVA followed by t-test, significant at P<0.05; for levels of allodynia compared with vehicle treated animals / (3) Post-Treatment (tactile pressure threshold), Ave. / (3) − (2), Ave. / Inhibition (%) of allodynia, Ave. / (3) Post-Treatment (tactile pressure threshold) / (3) − (2) (Post-Treatment minus Pre-Treatment) / Inhibition (%) of allodynia: IP; for (3) Post-Treatment (tactile pressure threshold), Ave. / (3) − (2), Ave. / Inhibition (%) of allodynia, Ave.: group average of 10 animals; for (3) Post-Treatment (tactile pressure threshold), Ave. / (3) − (2), Ave. / Inhibition (%) of allodynia, Ave. / (3) Post-Treatment (tactile pressure threshold) / (3) − (2) (Post-Treatment minus Pre-Treatment) / Inhibition (%) of allodynia: 400 mg/kg droxidopa and 20 mg/kg carbidopa, or 18 mg/kg fluoxetine; for (3) Post-Treatment (tactile pressure threshold) / (3) − (2) (Post-Treatment minus Pre-Treatment) / Inhibition (%) of allodynia: individual animals, male Wistar rats
Method: Treatment of fibromyalgia through reducing sensitivity to chronic pain using droxidopa in combination with carbidopa was investigated using the Chronic Constriction Injury (CCI) model. […] Specifically, after anesthetization using pentobarbital (50 mg/kg, 5 ml/kg, i.p.), the sciatic nerve was exposed at mid-thigh level, and three ligatures (4-0 silk suture), about 1 mm apart, were loosely tied around the nerve. The animals were then housed individually in cages with soft bedding for seven days before testing for mechanical allodynia. […] The tip was gradually applied with sufficient force to cause slight buckling of the filament against the paw. […] Allodynia was calculated according to the following formula: % Inhibition=ΔTreatment/ΔBlank×100%. where Δ Treatment is the change in tactile pressure threshold over pre-treatment after ligation [(Post-Treatment)-(Pre-Treatment)], and Δ Blank is change in tactile pressure threshold over pre-ligation but before treatment [(Pre-Ligation)-(Pre-Treatment)]. A one-way ANOVA followed by t-test was applied for comparison between test substance treated groups and the vehicle control group. Activity was considered significant at P<0.05.

MAO-A = target: T1, MAO-A (Homo sapiens, UniProt P21397); details: cited from earlier work
T1 sequence (P21397 1-527): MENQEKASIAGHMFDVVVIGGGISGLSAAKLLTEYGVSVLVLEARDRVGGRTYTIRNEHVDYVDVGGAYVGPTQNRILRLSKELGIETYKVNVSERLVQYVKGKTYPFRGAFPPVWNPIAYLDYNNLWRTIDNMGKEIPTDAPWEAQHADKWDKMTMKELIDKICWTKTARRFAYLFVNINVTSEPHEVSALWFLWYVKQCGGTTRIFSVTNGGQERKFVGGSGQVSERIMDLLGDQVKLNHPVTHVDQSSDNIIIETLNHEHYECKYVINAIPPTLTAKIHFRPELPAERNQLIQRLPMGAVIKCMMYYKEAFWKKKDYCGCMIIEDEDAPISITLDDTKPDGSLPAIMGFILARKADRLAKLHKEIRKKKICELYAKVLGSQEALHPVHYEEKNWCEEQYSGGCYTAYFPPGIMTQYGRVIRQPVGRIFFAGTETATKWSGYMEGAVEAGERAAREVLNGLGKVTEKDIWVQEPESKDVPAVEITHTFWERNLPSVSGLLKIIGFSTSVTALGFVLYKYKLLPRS

plasma norepinephrine = experiment: Plasma norepinephrine concentration after dosing droxidopa combinations; format: in vivo, rat; details: 2 hours post-dosing, rats
Method: The pharmacokinetic properties of droxidopa combinations useful in the methods of the invention were evaluated in male Sprague Dawley rats.
Administration of droxidopa combinations was seen to affect plasma norepinephrine concentration in comparison to administration of droxidopa alone. Formulation 0 indicates administration of the vehicle alone without droxidopa or a droxidopa combination of the invention and provides a baseline comparative of plasma norepinephrine levels in an untreated subject.

CNCCC(Oc1ccc(C(F)(F)F)cc1)c1ccccc1 (stereo not shown) [Fluoxetine, fluoxetine]
levels of allodynia compared with vehicle treated animals [1]: not significantly different from vehicle-treated rats | (3) Post-Treatment (tactile pressure threshold), Ave. [1]: 9.2 | (3) − (2), Ave. [1]: 0.4 | Inhibition (%) of allodynia, Ave. [1]: 0.7% | Inhibition (%) of allodynia, Ave. ([1]; listed as fluoxetine): less than 1% | (3) Post-Treatment (tactile pressure threshold) [1]: 14.4 and 12.4 and 11.2 and 9.7 and 7 and 10.4 and 6.5 and 8.8 and 6 and 5.9 | (3) − (2) (Post-Treatment minus Pre-Treatment) [1]: 5.3 and 1.2 and 3 (2×) and 0.6 (2×) and 1.6 and −5.5 and −2.7 and −3.6 | Inhibition (%) of allodynia [1]: 25.0% and 5.9% and 17.3% and 3.8% (2×) and 6.1% and 12.2% and −40.1% and −12.1% and −14.6% | Inhibition (%) of allodynia ([1]; listed as fluoxetine): 25% | increases in allodynia ([1]; individual fluoxetine-treated subjects, 18 mg/kg IP): ≤ 40.1%

O=C(NCCN1CCOCC1)c1ccc(Cl)cc1 [moclobemide]
selectivity for MAO-A than MAO-B (MAO-A): approximately three

NC(C(=O)O)C(O)c1ccc(O)c(O)c1 (stereo not drawn) [Droxidopa, threo-3-(3,4-dihydroxyphenyl)serine]
levels of allodynia compared with vehicle treated animals [1]: significantly decreased levels of allodynia | (3) Post-Treatment (tactile pressure threshold), Ave. [1]: 21.7 | (3) − (2), Ave. [1]: 13.2 | Inhibition (%) of allodynia, Ave. [1]: 65.7% | (3) Post-Treatment (tactile pressure threshold) [1]: 26.3 and 32.1 and 23.4 and 26.2 and 22.9 and 11.4 and 20.1 and 12.6 and 22.3 and 19.7 | (3) − (2) (Post-Treatment minus Pre-Treatment) [1]: 16.2 and 24.4 and 16.7 and 14.4 and 16.3 and 2.8 and 13.8 and 6 and 10.9 (2×) | Inhibition (%) of allodynia [1]: total allodynia inhibition in several test subjects and 104.5% and 115.6% and 66.3% and 75.8% and 74.4% and 11.5% and 72.6% and 26.1% and 62.3% and 48.0% | increase in plasma norepinephrine concentration (fold over vehicle alone) (plasma norepinephrine): ~5 fold
